Measured values taken from PMC9851200, “Multiparameter phenotypic screening for endogenous TFEB and TFE3 translocation identifies novel chemical series modulating lysosome function” (Autophagy, 2022).

Key:
Assay type in all cases: binding
[1] = target: kinases (KINOMEscan panel) (Homo sapiens, UniProt P10721, A829P); details: NEW KINOMEscan
[2] = target: kinases (KINOMEscan panel) (Homo sapiens, UniProt Q13177); details: PAK2; NEW KINOMEscan
[3] = target: T1, kinases (KINOMEscan panel) (Homo sapiens, UniProt Q8NFD2); details: ANKK1; NEW KINOMEscan
T1 sequence (Q8NFD2 1-765): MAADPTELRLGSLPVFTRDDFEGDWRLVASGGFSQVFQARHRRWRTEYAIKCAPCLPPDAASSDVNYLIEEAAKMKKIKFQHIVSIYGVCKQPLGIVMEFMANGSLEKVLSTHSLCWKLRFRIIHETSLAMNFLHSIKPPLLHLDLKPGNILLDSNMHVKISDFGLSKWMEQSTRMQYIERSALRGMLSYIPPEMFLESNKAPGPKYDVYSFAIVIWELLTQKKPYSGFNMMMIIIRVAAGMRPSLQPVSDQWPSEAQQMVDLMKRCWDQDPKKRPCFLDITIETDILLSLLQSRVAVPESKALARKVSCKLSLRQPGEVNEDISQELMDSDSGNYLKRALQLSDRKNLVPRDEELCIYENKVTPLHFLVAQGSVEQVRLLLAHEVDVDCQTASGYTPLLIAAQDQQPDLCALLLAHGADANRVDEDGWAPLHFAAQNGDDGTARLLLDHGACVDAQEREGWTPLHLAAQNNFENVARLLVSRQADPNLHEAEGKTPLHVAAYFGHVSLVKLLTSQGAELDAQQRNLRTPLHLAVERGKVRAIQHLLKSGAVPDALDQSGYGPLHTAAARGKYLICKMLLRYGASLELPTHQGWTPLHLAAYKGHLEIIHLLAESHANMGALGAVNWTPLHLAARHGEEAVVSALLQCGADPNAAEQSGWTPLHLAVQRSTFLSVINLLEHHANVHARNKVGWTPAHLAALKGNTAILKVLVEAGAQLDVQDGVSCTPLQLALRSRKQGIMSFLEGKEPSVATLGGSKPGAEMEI

[4] = target: kinases (KINOMEscan panel) (Homo sapiens, UniProt Q7KZI7); details: MARK2; NEW KINOMEscan
[5] = target: T2, kinases (KINOMEscan panel) (Homo sapiens, UniProt Q8TDC3); details: BRSK1; NEW KINOMEscan
T2 sequence (Q8TDC3 1-778): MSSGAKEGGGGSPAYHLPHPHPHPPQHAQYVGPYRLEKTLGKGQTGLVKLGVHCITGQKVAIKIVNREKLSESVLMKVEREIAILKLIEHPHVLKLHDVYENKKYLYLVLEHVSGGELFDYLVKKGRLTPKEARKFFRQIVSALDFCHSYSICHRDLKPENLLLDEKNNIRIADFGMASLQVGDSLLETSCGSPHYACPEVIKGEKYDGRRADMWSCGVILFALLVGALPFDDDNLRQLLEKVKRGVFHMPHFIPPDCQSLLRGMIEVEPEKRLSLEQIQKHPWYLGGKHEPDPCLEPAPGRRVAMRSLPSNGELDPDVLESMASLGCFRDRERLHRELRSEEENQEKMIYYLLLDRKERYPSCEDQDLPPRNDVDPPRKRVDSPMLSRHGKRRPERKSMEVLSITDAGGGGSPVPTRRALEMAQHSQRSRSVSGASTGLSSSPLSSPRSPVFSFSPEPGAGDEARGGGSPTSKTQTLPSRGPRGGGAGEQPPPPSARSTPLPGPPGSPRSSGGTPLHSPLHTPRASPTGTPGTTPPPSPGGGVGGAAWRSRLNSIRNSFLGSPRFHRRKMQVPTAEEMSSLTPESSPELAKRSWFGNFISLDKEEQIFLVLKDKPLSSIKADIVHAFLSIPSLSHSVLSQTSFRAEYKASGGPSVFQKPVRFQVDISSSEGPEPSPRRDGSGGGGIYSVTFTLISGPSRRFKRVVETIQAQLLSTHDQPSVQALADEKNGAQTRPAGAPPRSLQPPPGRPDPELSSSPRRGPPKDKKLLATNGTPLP

Chain of kinases (KINOMEscan panel) (Homo sapiens, UniProt Q13177) (Q13177 whole entry): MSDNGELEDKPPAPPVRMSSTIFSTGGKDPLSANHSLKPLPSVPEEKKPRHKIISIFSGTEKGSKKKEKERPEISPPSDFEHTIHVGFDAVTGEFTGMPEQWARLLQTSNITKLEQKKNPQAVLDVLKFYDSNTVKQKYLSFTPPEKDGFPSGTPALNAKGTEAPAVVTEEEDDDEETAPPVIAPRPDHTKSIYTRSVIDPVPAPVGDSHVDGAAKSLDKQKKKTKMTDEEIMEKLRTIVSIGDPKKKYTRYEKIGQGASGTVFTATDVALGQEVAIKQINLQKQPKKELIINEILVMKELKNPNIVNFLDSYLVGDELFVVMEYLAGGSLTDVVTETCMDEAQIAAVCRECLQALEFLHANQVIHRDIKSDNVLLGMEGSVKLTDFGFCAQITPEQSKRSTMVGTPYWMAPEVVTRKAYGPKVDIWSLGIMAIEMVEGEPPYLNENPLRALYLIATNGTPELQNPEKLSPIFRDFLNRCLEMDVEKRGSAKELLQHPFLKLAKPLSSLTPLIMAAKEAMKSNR
Chain of kinases (KINOMEscan panel) (Homo sapiens, UniProt Q7KZI7) (Q7KZI7 whole entry): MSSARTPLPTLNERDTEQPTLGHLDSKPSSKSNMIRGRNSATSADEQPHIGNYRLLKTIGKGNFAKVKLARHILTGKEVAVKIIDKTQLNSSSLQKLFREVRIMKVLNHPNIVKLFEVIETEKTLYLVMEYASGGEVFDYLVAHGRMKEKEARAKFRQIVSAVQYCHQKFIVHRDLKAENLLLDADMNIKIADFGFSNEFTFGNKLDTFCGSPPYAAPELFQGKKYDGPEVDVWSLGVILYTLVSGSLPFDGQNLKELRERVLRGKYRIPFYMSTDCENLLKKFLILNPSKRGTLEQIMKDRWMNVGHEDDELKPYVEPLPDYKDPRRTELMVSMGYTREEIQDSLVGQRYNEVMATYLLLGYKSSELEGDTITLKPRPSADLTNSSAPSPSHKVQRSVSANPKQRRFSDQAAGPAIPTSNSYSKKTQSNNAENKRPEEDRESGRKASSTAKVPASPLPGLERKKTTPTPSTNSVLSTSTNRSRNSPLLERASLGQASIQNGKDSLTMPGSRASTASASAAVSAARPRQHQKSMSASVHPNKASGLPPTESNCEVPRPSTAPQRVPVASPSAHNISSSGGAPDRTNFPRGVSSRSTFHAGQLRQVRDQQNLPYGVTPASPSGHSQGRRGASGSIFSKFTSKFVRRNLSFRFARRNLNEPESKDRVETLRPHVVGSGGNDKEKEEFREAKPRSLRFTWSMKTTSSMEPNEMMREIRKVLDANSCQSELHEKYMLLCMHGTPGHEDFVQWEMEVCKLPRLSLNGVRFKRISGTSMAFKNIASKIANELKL
Chain of kinases (KINOMEscan panel) (Homo sapiens, UniProt P10721, A829P) (P10721 26-976 A829P): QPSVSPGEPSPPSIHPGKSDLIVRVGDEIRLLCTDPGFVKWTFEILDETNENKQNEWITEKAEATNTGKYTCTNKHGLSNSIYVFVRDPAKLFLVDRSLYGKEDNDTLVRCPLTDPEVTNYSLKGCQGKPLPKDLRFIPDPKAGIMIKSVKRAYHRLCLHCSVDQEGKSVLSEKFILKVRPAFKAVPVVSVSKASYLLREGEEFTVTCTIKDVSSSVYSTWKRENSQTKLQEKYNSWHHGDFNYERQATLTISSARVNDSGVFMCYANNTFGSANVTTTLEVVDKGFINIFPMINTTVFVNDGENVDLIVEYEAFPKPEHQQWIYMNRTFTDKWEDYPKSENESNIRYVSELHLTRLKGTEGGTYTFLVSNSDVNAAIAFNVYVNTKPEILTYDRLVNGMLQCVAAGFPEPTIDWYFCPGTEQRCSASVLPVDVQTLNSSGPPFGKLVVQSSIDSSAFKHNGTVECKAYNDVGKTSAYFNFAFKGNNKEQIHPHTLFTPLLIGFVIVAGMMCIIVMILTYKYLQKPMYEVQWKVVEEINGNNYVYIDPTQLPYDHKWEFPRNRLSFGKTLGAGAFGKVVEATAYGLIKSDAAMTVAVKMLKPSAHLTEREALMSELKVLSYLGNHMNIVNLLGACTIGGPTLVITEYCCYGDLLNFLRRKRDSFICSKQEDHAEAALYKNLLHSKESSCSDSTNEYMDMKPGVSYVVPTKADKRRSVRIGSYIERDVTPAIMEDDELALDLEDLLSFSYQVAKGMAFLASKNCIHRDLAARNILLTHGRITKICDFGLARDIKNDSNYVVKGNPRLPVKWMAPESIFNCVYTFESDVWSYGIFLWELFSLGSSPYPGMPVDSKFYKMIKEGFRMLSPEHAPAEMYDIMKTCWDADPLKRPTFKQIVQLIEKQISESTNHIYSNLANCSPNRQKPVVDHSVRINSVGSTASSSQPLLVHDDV

## Cc1cccc(-c2nc(Nc3ccc4nn(C)cc4c3)c3ccccc3n2)n1 [NK167]
[1]
  KINOMEscan KIT(A829P): 0
[2]
  KINOMEscan PAK2: 0
[3]
  KINOMEscan ANKK1: 0
[4]
  KINOMEscan MARK2: 0
[5]
  KINOMEscan BRSK1: 0

## Cc1cccc(-c2nc(N(C)c3ccc4ncsc4c3)c3ccccc3n2)n1 [NK-161]
[1]
  KINOMEscan KIT(A829P): 19
[2]
  KINOMEscan PAK2: 0
[3]
  KINOMEscan ANKK1: 0
[4]
  KINOMEscan MARK2: 0
[5]
  KINOMEscan BRSK1: 0
